US20250170266A1 (ZYMEWORKS BC INC., priority 2022, published 2025)
Read-outs that look alike come from different tables or passages of the source.

Assays:
Assay type in all cases: cell-based
hTLR7 = molecular target: T1, hTLR7 (Homo sapiens, UniProt Q9NYK1); assay: Reporter Gene Assay (RGA), HEK-Blue hTLR7 reporter cells, SEAP readout; details: overnight incubation, SEAP absorbance 620 nm
T1 construct: host or cells: HEK-Blue hTLR7 reporter cells (HEK293-derived, own knowledge)
T1 sequence (Q9NYK1 27-1049): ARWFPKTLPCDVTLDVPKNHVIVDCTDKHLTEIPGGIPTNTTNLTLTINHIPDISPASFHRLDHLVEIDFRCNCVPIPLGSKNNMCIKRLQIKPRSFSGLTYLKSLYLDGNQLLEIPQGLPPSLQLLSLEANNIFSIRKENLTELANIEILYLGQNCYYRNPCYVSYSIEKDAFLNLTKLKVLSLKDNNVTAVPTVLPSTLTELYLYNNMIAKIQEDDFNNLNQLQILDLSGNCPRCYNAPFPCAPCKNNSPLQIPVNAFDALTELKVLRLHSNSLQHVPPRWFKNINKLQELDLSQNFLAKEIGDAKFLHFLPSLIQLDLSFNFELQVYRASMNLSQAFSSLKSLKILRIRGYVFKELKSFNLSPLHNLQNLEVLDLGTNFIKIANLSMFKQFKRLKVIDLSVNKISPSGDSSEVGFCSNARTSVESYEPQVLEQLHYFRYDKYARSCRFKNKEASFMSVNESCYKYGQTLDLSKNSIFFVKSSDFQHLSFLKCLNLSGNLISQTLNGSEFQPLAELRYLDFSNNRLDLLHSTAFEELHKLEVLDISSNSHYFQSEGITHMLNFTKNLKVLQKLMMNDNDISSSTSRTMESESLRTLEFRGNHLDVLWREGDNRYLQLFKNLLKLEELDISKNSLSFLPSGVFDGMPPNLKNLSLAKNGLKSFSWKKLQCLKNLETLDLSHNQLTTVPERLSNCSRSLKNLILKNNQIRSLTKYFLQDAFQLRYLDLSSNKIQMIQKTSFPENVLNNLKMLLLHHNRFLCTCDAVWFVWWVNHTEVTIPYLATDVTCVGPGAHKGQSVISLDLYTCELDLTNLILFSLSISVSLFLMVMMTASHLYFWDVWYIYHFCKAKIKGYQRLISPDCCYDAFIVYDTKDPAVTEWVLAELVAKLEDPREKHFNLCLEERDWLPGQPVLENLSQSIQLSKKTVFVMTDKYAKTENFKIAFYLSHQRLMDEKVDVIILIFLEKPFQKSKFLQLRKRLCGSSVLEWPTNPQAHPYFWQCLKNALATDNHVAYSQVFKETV
Outline: (§1)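 HEK-Blue reporter cells expressing human or mouse TLR7 (1.5×10^4 cells) were treated with an 11-point, 4-fold compound titration from 15 pM in HEK-Blue Detection medium. Incubation was overnight at 37° C with 5% CO2. Secreted embryonic alkaline phosphatase was read as absorbance at 620 nm.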

mTLR7 = molecular target: T2, mTLR7 (Mus musculus, UniProt P58681); assay: Reporter Gene Assay (RGA), HEK-Blue mTLR7 reporter cells, SEAP readout; details: overnight incubation, SEAP absorbance 620 nm
T2 construct: host or cells: HEK-Blue mTLR7 reporter cells (HEK293-derived, own knowledge)
T2 sequence (P58681 27-1050): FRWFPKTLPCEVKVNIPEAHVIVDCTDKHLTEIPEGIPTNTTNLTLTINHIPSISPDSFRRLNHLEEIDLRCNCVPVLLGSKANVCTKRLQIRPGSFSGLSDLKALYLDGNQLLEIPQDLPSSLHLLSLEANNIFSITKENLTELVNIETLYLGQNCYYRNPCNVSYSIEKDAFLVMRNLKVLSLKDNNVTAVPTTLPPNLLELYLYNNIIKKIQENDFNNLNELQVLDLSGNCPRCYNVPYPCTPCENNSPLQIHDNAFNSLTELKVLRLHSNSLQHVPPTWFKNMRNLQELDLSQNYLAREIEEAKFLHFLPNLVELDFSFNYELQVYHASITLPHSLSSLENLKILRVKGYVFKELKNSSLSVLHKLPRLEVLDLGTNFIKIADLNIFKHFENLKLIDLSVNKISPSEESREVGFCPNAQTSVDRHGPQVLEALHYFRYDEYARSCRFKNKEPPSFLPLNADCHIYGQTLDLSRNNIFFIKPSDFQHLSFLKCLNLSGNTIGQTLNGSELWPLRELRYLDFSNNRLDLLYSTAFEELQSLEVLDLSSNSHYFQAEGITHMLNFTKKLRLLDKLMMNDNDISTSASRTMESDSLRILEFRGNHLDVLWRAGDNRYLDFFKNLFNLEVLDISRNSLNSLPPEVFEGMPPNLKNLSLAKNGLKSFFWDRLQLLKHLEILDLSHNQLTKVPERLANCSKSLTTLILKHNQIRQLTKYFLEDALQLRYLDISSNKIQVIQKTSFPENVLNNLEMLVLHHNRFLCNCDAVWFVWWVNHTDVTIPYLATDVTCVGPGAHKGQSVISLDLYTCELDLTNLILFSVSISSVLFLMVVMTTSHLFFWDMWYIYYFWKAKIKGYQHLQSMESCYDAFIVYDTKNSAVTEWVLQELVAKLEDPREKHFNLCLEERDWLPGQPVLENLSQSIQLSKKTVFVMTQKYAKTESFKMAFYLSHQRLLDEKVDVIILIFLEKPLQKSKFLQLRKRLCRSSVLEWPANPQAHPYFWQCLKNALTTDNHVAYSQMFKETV
Outline: as §1

[1] = system: Human peripheral blood mononuclear cells (PBMCs); assay: Human PBMC Assay, cytokine release (HTRF); details: 24 hours; for EC50: PBMC
Outline: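 Cryopreserved human PBMCs, rested overnight with 10 ng/ml hIL3, then 300,000 cells/well treated 24 h at 37° C with compound (4-fold, 11-point titration from 15 μM) in RPMI+10% FBS. Supernatant hIL6, hTNFα and hIFNα measured by HTRF; growth medium as negative control.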

Mouse splenocytes = assay: Mouse Splenocyte Assay, cytokine release (HTRF); details: Splenocyte, 24 hours, mIL6 in supernatant, read-out: Splenocyte IL6 EC50
Outline: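 Splenocytes from female balb/c nude mice, thawed, 100,000 per well in RPMI + 10% FBS. Exposed for 24 h at 37 °C to a 4-fold 11-point compound titration from 15 μM; supernatant mIL6 and mTNFα measured by HTRF.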

[2] = hIFNα in supernatant, EC50 values approximated and divided into groups, read-out: PBMC IFNa EC50
[3] = hIL6 in supernatant, read-out: PBMC IL6 EC50

Structure (SMILES) | EC50 (hTLR7) [nM] | EC50 (mTLR7) [nM] | EC50 [1, 2] [nM] | EC50 [1, 3] [nM] | EC50 (Mouse splenocytes) [nM] | PBMC IL6 EC50 (nM) ([1]; hIL6 in supernatant)
CCCCOc1nc(N)c2nc(O)n(Cc3ccc(CNCCCCN)cc3OC)c2n1 [Compound 160, 6-amino-9-(4-(((4-aminobutyl)amino)methyl)-2-methoxybenzyl)-2-butoxy-9H-purin-8-ol] | 7.2 | 10 | < 0.1 | 1080 | 6.6 | –
CCCCOc1nc(N)c2nc(O)n(Cc3ccc(CN)cc3OC)c2n1 [Compound 162, 6-amino-9-(4-(aminomethyl)-2-methoxybenzyl)-2-butoxy-9H-purin-8-ol] | 1.7 | 2.3 | 1 to 10 | – | 1.3 | –
CCCCOc1nc(N)c2nc(O)n(Cc3ccc(CNC)cc3OC)c2n1 [Compound 163, 6-amino-2-butoxy-9-(2-methoxy-4-((methylamino)methyl)benzyl)-9H-purin-8-ol] | 0.7 | 3.3 | < 0.1 | – | 2.9 | –
CCCCOc1nc(N)c2nc(O)n(Cc3ccc(CNC4CCC4)cc3OC)c2n1 [Compound 164, 6-amino-2-butoxy-9-(4-((cyclobutylamino)methyl)-2-methoxybenzyl)-9H-purin-8-ol] | < 0.1 | < 0.1 | < 0.1 | 2540 | 0.3 | –
CCCCOc1nc(N)c2nc(O)n(Cc3ccc(CN4CCNCC4)cc3)c2n1 [Compound 166, 6-amino-2-butoxy-9-(4-(piperazin-1-ylmethyl)benzyl)-9H-purin-8-ol] | < 0.1 | 11 | > 10 | 1570 | 150 | –
CCCCOc1nc(N)c2nc(O)n(Cc3ccc(N4CCNCC4)nc3)c2n1 [Compound 167, 6-amino-2-butoxy-9-((6-(piperazin-1-yl)pyridin-3-yl)methyl)-9H-purin-8-ol] | 0.5 | 5.3 | > 10 | 2030 | 18 | –
CCCCOc1nc(N)c2nc(O)n(Cc3ccc(N4CCC5(CCNCC5)CC4)nc3)c2n1 [Compound 168, 9-((6-(3,9-diazaspiro[5.5]undecan-3-yl)pyridin-3-yl)methyl)-6-amino-2-butoxy-9H-purin-8-ol] | 0.1 | 5.7 | > 10 | – | 35.7 | inactive
CCCCOc1nc(N)c2nc(O)n(Cc3ccc(N4CCNCC4)cc3OC)c2n1 [Compound 169, 6-amino-2-butoxy-9-(2-methoxy-4-(piperazin-1-yl)benzyl)-9H-purin-8-ol] | 1.1 | 3 | 1 to 10 | – | 23.2 | –
